In ChEMBL document CHEMBL4321837, “Discovery of Potent and Orally Effective Dual Janus Kinase 2/FLT3 Inhibitors for the Treatment of Acute Myelogenous Leukemia and Myeloproliferative Neoplasms” (J Med Chem, 2019):

Tests used:
[1] = molecular target: Tyrosine-protein kinase JAK2 (Homo sapiens, UniProt O60674); assay: Inhibition of human JAK2 (808 to end residues) assessed as residual activity at 100 nM using KTFCGTPEYLAP as substrate after 40 mins in presence of [gamma33P]-ATP by scintillation counting based radiometric assay relative to control
CDK6/cyclin D3 = CDK6/cyclin D3 (Homo sapiens, UniProt Q00534); assay: Inhibition of recombinant full length human CDK6/CyclinD3 using histone H1 as substrate incubated for 30 mins in presence of [gamma33P]-ATP by scintillation counting based radiometry assay; format: protein-complex assay
MV4-11 [2] = assay: Induction of cell cycle arrest in human MV4-11 cells assessed as accumulation at S phase at 0.1 uM after 24 hrs by propidium iodide staining based flow cytometry analysis (reference value: 30.11%); format: functional
MV4-11 [3] = assay: Induction of apoptosis in human MV4-11 cells assessed as early apoptotic cells at 0.2 uM after 24 hrs by Annexin V FITC/PI staining based flow cytometry analysis (reference value: 2.14%); format: functional

Chain of Tyrosine-protein kinase JAK2 (O60674 whole entry): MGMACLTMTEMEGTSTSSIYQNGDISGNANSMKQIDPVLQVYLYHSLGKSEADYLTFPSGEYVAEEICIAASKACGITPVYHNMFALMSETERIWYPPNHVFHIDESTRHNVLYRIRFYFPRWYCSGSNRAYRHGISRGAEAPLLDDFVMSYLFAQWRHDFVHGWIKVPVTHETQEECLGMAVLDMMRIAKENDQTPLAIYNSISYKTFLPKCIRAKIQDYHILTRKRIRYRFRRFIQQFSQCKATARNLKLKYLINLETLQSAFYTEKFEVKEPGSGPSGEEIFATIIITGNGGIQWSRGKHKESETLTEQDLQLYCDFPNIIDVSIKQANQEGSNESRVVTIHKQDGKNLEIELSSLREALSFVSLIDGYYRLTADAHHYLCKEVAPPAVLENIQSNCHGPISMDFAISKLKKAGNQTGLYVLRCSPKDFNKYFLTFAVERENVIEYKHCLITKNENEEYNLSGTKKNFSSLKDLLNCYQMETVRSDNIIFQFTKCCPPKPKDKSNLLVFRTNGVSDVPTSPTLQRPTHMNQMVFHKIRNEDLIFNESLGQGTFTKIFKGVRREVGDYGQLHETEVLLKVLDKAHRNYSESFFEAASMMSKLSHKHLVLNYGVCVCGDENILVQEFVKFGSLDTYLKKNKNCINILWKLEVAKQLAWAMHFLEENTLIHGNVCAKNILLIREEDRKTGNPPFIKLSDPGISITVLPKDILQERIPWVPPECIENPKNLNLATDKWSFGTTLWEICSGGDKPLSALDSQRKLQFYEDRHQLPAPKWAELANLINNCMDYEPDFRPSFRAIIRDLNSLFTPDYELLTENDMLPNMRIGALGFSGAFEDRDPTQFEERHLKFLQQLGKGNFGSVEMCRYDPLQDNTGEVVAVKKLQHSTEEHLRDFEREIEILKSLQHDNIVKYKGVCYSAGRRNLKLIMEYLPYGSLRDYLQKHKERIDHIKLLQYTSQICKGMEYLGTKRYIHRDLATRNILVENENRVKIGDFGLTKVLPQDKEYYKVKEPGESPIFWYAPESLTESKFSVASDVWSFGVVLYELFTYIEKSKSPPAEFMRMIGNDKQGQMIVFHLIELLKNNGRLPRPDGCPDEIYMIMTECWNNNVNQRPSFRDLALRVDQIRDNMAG
Chain of CDK6/cyclin D3 (P30281 whole entry): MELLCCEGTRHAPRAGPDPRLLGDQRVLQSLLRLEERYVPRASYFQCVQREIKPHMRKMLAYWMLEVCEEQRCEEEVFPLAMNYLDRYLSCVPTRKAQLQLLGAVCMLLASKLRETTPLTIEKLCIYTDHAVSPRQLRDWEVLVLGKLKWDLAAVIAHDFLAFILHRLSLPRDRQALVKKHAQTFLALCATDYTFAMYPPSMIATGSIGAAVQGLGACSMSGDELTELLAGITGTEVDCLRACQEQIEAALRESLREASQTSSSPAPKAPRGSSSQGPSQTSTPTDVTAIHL
Chain of CDK6/cyclin D3 (Q00534 whole entry): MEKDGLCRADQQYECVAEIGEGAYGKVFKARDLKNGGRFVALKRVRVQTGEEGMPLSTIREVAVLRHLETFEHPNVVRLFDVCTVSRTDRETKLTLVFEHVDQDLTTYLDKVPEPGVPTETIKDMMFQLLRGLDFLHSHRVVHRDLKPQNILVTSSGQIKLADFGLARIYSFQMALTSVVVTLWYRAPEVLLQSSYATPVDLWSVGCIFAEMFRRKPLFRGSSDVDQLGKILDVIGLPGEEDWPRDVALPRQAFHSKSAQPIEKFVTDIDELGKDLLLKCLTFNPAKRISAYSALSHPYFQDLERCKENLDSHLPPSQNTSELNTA

Cc1cnc(Nc2ccc(N3CCC(N(C)CCO)CC3)c(F)c2)nc1-c1cnn(C(C)C)c1 showed an Activity [1] of 0%, an IC50 (CDK6/cyclin D3) of 66 nM and an Activity (MV4-11 [2]) of 10.26%. It also gave an Activity (MV4-11 [3]) of 11.9%.
